The supplement of paper PMC10307832

Legend:
Test in all cases: relative viability (nuclei count vs DMSO), 5 days (fraction); higher = more cells survive
PC-14 = system: PC-14
Method in brief: (§1)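 Lung cancer cell lines in 1536-well plates got either a single drug or a fixed anchor-drug dose together with five library-drug doses (not always all listed) in √10 steps, by pin tool, on the day after seeding. Nuclei were counted after 5 days, and relative viability is the treated-to-vehicle ratio of nuclei counts. Values are medians of duplicate plates.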

H3255 = system: H3255
Method in brief: as §1

NCI-H520 = system: NCI-H520
Method in brief: as §1

NCI-H2405 = system: NCI-H2405
Method in brief: as §1

NCI-H23 = system: NCI-H23
Method in brief: as §1

NCI-H647 = system: NCI-H647
Method in brief: as §1

NCI-H1666 = system: NCI-H1666
Method in brief: as §1

NCI-H1915 = system: NCI-H1915
Method in brief: as §1

NCI-H2347 = system: NCI-H2347
Method in brief: as §1

NCI-H2126 = system: NCI-H2126
Method in brief: as §1

EPLC-272H = system: EPLC-272H
Method in brief: as §1

LC-2-ad = system: LC-2-ad
Method in brief: as §1

RERF-LC-KJ = system: RERF-LC-KJ
Method in brief: as §1

NCI-H661 = system: NCI-H661
Method in brief: as §1

NCI-H650 = system: NCI-H650
Method in brief: as §1

HCC-78 = system: HCC-78
Method in brief: as §1

201T = system: 201T
Method in brief: as §1

HCC-827 = system: HCC-827
Method in brief: as §1

COR-L 105 = system: COR-L 105
Method in brief: as §1

NCI-H2087 = system: NCI-H2087
Method in brief: as §1

ChaGo-K-1 = system: ChaGo-K-1
Method in brief: as §1

LCLC-97TM1 = system: LCLC-97TM1
Method in brief: as §1

O=c1cc(-c2cccc3c2Sc2ccccc2S3)oc(N2CCOCC2)c1 + Nc1nc2[nH]cc(CCc3ccc(C(=O)N[C@@H](CCC(=O)O)C(=O)O)cc3)c2c(=O)[nH]1 [Pemetrexed] (partner 0.2 µM)
relative viability (PC-14; first compound 0.08 µM): 0.138
relative viability (PC-14; first compound 0.253 µM): 0.135
relative viability (PC-14; first compound 0.8 µM): 0.132
relative viability (PC-14; first compound 2.53 µM): 0.119
relative viability (PC-14; first compound 8 µM): 0.12
relative viability (H3255; first compound 0.08 µM): 0.474
relative viability (H3255; first compound 0.253 µM): 0.547
relative viability (H3255; first compound 0.8 µM): 0.533
relative viability (H3255; first compound 2.53 µM): 0.552
relative viability (H3255; first compound 8 µM): 0.56
relative viability (NCI-H520; first compound 0.08 µM): 0.634
relative viability (NCI-H520; first compound 0.253 µM): 0.835
relative viability (NCI-H520; first compound 0.8 µM): 0.739
relative viability (NCI-H520; first compound 2.53 µM): 0.717
relative viability (NCI-H520; first compound 8 µM): 0.69
relative viability (NCI-H2405; first compound 0.08 µM): 0.859
relative viability (NCI-H2405; first compound 0.253 µM): 1.1
relative viability (NCI-H2405; first compound 0.8 µM): 1.06
relative viability (NCI-H2405; first compound 2.53 µM): 0.83
relative viability (NCI-H2405; first compound 8 µM): 1.02
relative viability (NCI-H23; first compound 0.08 µM): 0.584
relative viability (NCI-H23; first compound 0.253 µM): 0.902
relative viability (NCI-H23; first compound 0.8 µM): 0.72
relative viability (NCI-H23; first compound 2.53 µM): 0.518
relative viability (NCI-H23; first compound 8 µM): 0.575
relative viability (NCI-H647; first compound 0.08 µM): 0.168
relative viability (NCI-H647; first compound 0.253 µM): 0.149
relative viability (NCI-H647; first compound 0.8 µM): 0.17
relative viability (NCI-H647; first compound 2.53 µM): 0.169
relative viability (NCI-H647; first compound 8 µM): 0.159
relative viability (NCI-H1666; first compound 0.08 µM): 0.844
relative viability (NCI-H1666; first compound 0.253 µM): 0.913
relative viability (NCI-H1666; first compound 0.8 µM): 0.762
relative viability (NCI-H1666; first compound 2.53 µM): 0.758
relative viability (NCI-H1666; first compound 8 µM): 0.793
relative viability (NCI-H1915; first compound 0.08 µM): 0.507
relative viability (NCI-H1915; first compound 0.253 µM): 0.442
relative viability (NCI-H1915; first compound 0.8 µM): 0.552
relative viability (NCI-H1915; first compound 2.53 µM): 0.52
relative viability (NCI-H1915; first compound 8 µM): 0.405
relative viability (NCI-H2347; first compound 0.08 µM): 0.386
relative viability (NCI-H2347; first compound 0.253 µM): 0.458
relative viability (NCI-H2347; first compound 0.8 µM): 0.465
relative viability (NCI-H2347; first compound 2.53 µM): 0.424
relative viability (NCI-H2347; first compound 8 µM): 0.435
relative viability (NCI-H2126; first compound 0.08 µM): 0.682
relative viability (NCI-H2126; first compound 0.253 µM): 0.785
relative viability (NCI-H2126; first compound 0.8 µM): 0.71
relative viability (NCI-H2126; first compound 2.53 µM): 0.695
relative viability (NCI-H2126; first compound 8 µM): 0.645
relative viability (EPLC-272H; first compound 0.08 µM): 0.296
relative viability (EPLC-272H; first compound 0.253 µM): 0.224
relative viability (EPLC-272H; first compound 0.8 µM): 0.333
relative viability (EPLC-272H; first compound 2.53 µM): 0.304
relative viability (EPLC-272H; first compound 8 µM): 0.197
relative viability (LC-2-ad; first compound 0.08 µM): 0.284
relative viability (LC-2-ad; first compound 0.253 µM): 0.252
relative viability (LC-2-ad; first compound 0.8 µM): 0.285
relative viability (LC-2-ad; first compound 2.53 µM): 0.271
relative viability (LC-2-ad; first compound 8 µM): 0.27
relative viability (RERF-LC-KJ; first compound 0.08 µM): 0.443
relative viability (RERF-LC-KJ; first compound 0.253 µM): 0.469
relative viability (RERF-LC-KJ; first compound 0.8 µM): 0.504
relative viability (RERF-LC-KJ; first compound 2.53 µM): 0.474
relative viability (RERF-LC-KJ; first compound 8 µM): 0.469
relative viability (NCI-H661; first compound 0.08 µM): 0.9
relative viability (NCI-H661; first compound 0.253 µM): 0.942
relative viability (NCI-H661; first compound 0.8 µM): 0.962
relative viability (NCI-H661; first compound 2.53 µM): 0.874
relative viability (NCI-H661; first compound 8 µM): 0.899
relative viability (NCI-H650; first compound 0.08 µM): 0.917
relative viability (NCI-H650; first compound 0.253 µM): 0.964
relative viability (NCI-H650; first compound 0.8 µM): 0.878
relative viability (NCI-H650; first compound 2.53 µM): 0.74
relative viability (NCI-H650; first compound 8 µM): 0.866
relative viability (HCC-78; first compound 0.08 µM): 0.914
relative viability (HCC-78; first compound 0.253 µM): 0.943
relative viability (HCC-78; first compound 0.8 µM): 0.946
relative viability (HCC-78; first compound 2.53 µM): 0.882
relative viability (HCC-78; first compound 8 µM): 0.928
relative viability (201T; first compound 0.08 µM): 0.302
relative viability (201T; first compound 0.253 µM): 0.353
relative viability (201T; first compound 0.8 µM): 0.37
relative viability (201T; first compound 2.53 µM): 0.287
relative viability (201T; first compound 8 µM): 0.302
relative viability (HCC-827; first compound 0.08 µM): 0.231
relative viability (HCC-827; first compound 0.253 µM): 0.272
relative viability (HCC-827; first compound 0.8 µM): 0.244
relative viability (HCC-827; first compound 2.53 µM): 0.264
relative viability (HCC-827; first compound 8 µM): 0.228
relative viability (COR-L 105; first compound 0.08 µM): 1.08
relative viability (COR-L 105; first compound 0.253 µM): 0.835
relative viability (COR-L 105; first compound 0.8 µM): 1.1
relative viability (COR-L 105; first compound 2.53 µM): 0.918
relative viability (COR-L 105; first compound 8 µM): 1.14
relative viability (NCI-H2087; first compound 0.08 µM): 0.669
relative viability (NCI-H2087; first compound 0.253 µM): 0.662
relative viability (NCI-H2087; first compound 0.8 µM): 0.726
relative viability (NCI-H2087; first compound 2.53 µM): 0.649
relative viability (NCI-H2087; first compound 8 µM): 0.674
relative viability (ChaGo-K-1; first compound 0.08 µM): 0.251
relative viability (ChaGo-K-1; first compound 0.253 µM): 0.264
relative viability (ChaGo-K-1; first compound 0.8 µM): 0.248
relative viability (ChaGo-K-1; first compound 2.53 µM): 0.287
relative viability (ChaGo-K-1; first compound 8 µM): 0.273
relative viability (LCLC-97TM1; first compound 0.08 µM): 0.175
relative viability (LCLC-97TM1; first compound 0.253 µM): 0.169
relative viability (LCLC-97TM1; first compound 0.8 µM): 0.18
relative viability (LCLC-97TM1; first compound 2.53 µM): 0.177
relative viability (LCLC-97TM1; first compound 8 µM): 0.175
